Measured values published in patent US8575170B2, “Flurbiprofen analogs and methods of use in treating cancer” (The Regents of the Unversity of Colorado, a body corporate, priority 2010, dated 2013).
Where two headings read alike, the source gives them in different places.

Tests used:
[1] = Solubility of flurbiprofen analog compounds; format: physicochemical; conditions: medium in which the compound is soluble, Table 5
[2] = tested on: H2122; assay: MTT cell viability, H2122 lung carcinoma cell line; format: cell-based; conditions: IC50 values for the H2122 lung carcinoma cell line, Table 5, read-out: H2122 In vitro
Description: The ability of the flurbiprofen analog compounds of the invention to inhibit cancer cell growth and survival (viability) in a variety of cancer lines was examined in a standard MTT assay for cell viability, as detailed in Example 2.
The IC50 values given in Tables 1-4 were measured using the B1031 ([…]) compound) shown in Section IIB above. To confirm the generality of the results with respect to other fluribprofen analogs prepared in accordance with the invention, IC50 values for the other 11 analog compounds given in Section IIB were similarly determined for the H2122 lung carcinoma cell line.
The studies reported in Tables 1-3 above were carried out by incubating the cells in the test compound for four days, under standard cell-culture conditions, and measuring cell survival on day 5 (see Example 2).
Cell growth and survival following treatment with N—[(S)-2-Fluoro-α-methyl-4-biphenylacetyl]-[L-(4-phenylphenyl)alanine]-N-(2,2,6,6-tetramethyl-4-piperidinyl)amide (GCBH-110=B1031; (S)-Fmba-L-Bip-Atmp) were measured by a rapid colorimetric assay based on the tetrazolium salt MTT (3-(4,5-dimethylthiazol-2-yl)-2,5-diphenyl tetrazolium bromide) (Mosmann, J. Immunol. Methods 65: 55-63, 1983, with minor modifications).
Briefly, approximately 1,000-5,000 cancer cells from 15 different cancer cells lines were plated in 100 μL of growth medium in 96-well flat-bottomed microtiter plates. Cells were incubated overnight to allow recovery. Compounds to be tested were added to the cells in triplicate in a range of concentrations and the cells were incubated at 37° C., 5% CO2, with 100% humidity. Control cells were treated in the same way without antagonists. […] Plates were incubated for 4 days, allowing sufficient time for cell replication and compound-induced cell death to occur. On day 5, 25 μL of a 2 mg/mL solution of MTT (Sigma) dissolved in RMPI-1640 was added to each well. The plate was incubated for 4 h at 37° C. The supernatant liquid was removed and the blue formazan complex was dissolved by adding 100 μL of 0.02 N HCl in 75% isopropanol to all wells. Absorbance was immediately determined using a scanning multiwell plate reader.

[3] = tested on: H2122 lung carcinoma solid tumor xenograft; assay: H2122 lung carcinoma xenograft in nude mice; format: in vivo, athymic nude mice; conditions: 5 mg/kg daily intraperitoneal, from day 7 after implantation, over the 25 days of treatment, FIG. 11
Description: The efficacy of the treatment method was examined for both lung carcinoma-cell tumors and pancreatic-cell tumors implanted in athymic mice, according to the method detailed in Example 3. In the first study, mice injected with lung-carcinoma cells were treated, seven days after cancer-cell implantation, by daily injection of 5 mg/kg body weight of one of three different flurbiprofen analog compounds: B1005 (GCBH 104); B1020 (GCBH 108) and B1031 (GCBH 110). Tumor size was measured by calipers at the days indicated in FIG. 11, with final tumor weight and volume being determined by extracting the tumor from the sacrificed animals.
Compounds having high in vitro cytotoxic activity were tested against implanted tumors in vivo. In one study, athymic nude mice were implanted subcutaneously with suspensions of approximately 2 million H2122 lung carcinoma cells, in Matrigel suspension. On the seventh day after tumor implantation, groups of 5 mice bearing implants were injected intraperitoneally with the compounds being tested at 5 mg/kg/every day; control animals were injected with an equal volume of isotonic saline. […] Tumor size was measured with a caliper three times per week. Tumor volume was calculated by the formula: Volume (cc)=3.14×(length)×(width)^2/6
At autopsy, tumors were removed and weighed. Tumor inhibition was calculated on both weight and measurement basis.

[4] = tested on: HT-29 colon cancer cells; assay: Loss in cell viability, HT-29 colon cancer cells; format: cell-based; conditions: Homo sapiens; HT-29 colon cancer cell, FIG. 6A
Description: FIGS. 6A and 6B show the loss in cell viability in HT-29 colon cancer cells, in response to increasing concentrations of GH 502 (GCBH 118) (FIG. 6A), and the effect of various treatments, including increasing concentration of GH501 (GCBH 110) on U251 malignant glioma cells and BTIC EF12 brain tumor initiating stem cells (FIG. 6B).
The study shown in FIG. 6A examined the effect of GCBH-118 (GH502) on an HT-29 colon cancer cell, showing an IC50 value of about 1 μM. […] The graph indicates an IC50 value for the B1031 compound against the U251 brain cancer cell line of between 2 and 10 μM.

| Solubility [1] [% DMSO] | IC50 [2] [nM] | IC50 ([2]; Homo sapiens, NCI-H2122) [nM] | IC50 [4] [nM] | SMILES | inhibition of growth of the lung carcinoma cell line H2122 tumor [3] [%] |
| --- | --- | --- | --- | --- | --- |
| 50 | 1600 |  |  | CC(C(=O)N[C@@H](Cc1ccc(OCc2c(Cl)cccc2Cl)cc1)C(=O)NC1CC(C)(C)NC(C)(C)C1)c1ccc(-c2ccccc2)c(F)c1 (stereo partly drawn) [GCBH-112, N—[(R,S)-2-Fluoro-α-methyl-4-biphenylacetyl]-[O-(2,6,dichlorobenzyl)-L-tyrosine]-N-(2,2,6,6-tetramethyl-4-piperidinyl)amide] |  |
|  |  |  |  | CC(C(=O)N[C@@H](Cc1ccc(-c2ccccc2)cc1)C(=O)NC1CC(C)(C)NC(C)(C)C1)c1ccc(-c2ccccc2)c(F)c1 (stereo partly drawn) [GCBH-104, N—[(R,S)-2-Fluoro-α-methyl-4-biphenylacetyl]-[L-(4-phenylphenyl)alanine]-N-(2,2,6,6-tetramethyl-4-piperidinyl)amide] | 74 |
| 20 |  | 2300 |  | CC(C(=O)N[C@@H](CC1CCCCC1)C(=O)NC1CC(C)(C)NC(C)(C)C1)c1ccc(-c2ccccc2)c(F)c1 (stereo partly drawn) [GCBH-116, N—[(R,S)-2-Fluoro-α-methyl-4-biphenylacetyl]-(β-cyclohexyl-L-alanine)-N-(2,2,6,6-tetramethyl-4-piperidinyl)amide] |  |
| 50 |  | 1200 |  | CC(C(=O)N[C@H](C(=O)NC1CC(C)(C)NC(C)(C)C1)C(c1ccccc1)c1ccccc1)c1ccc(-c2ccccc2)c(F)c1 (some centres unmarked) [GCBH-106] |  |
|  |  | 1400 | ~1000 | CC(C(=O)N[C@@H](Cc1cccnc1)C(=O)NC1CC(C)(C)NC(C)(C)C1)c1ccc(-c2ccccc2)c(F)c1 (stereo partly drawn) [GCBH-118, N—[(R,S)-2-Fluoro-α-methyl-4-biphenylacetyl]-(β-3-pyridyl-L-alanine)-N-(2,2,6,6-tetramethyl-4-piperidinyl)amide] |  |
| 50 |  | 4000 |  | CC(C(=O)N[C@@H](Cc1ccc(OCc2c(Cl)cccc2Cl)cc1)C(=O)NC1CC(C)(C)NC(C)(C)C1)c1ccc(-c2ccccc2)c(F)c1 (stereo partly drawn) [GCBH-100, N—[(R,S)-2-Fluoro-α-methyl-4-biphenylacetyl]-[O-(2,6,dichlorobenzyl)-L-tyrosine]-N-(2,2,6,6-tetramethyl-4-piperidinyl)amide] |  |
| 50 |  | 2100 |  | C[C@H](C(=O)N[C@@H](Cc1ccc(C(F)(F)F)cc1)C(=O)NC1CC(C)(C)NC(C)(C)C1)c1ccc(-c2ccccc2)c(F)c1 [GCBH-122, N—[(S)-2-Fluoro-α-methyl-4-biphenylacetyl]-[(4-trifluoromethyl)-L-phenylalanine]-N-(2,2,6,6-tetramethyl-4-piperidinyl)amide] |  |
| 50 |  | 5400 |  | C[C@H](C(=O)NC(CC(=O)NC1CC(C)(C)NC(C)(C)C1)c1ccc(-c2ccccc2)cc1)c1ccc(-c2ccccc2)c(F)c1 (stereo partly drawn) [GCBH-120, N—[(S)-2-Fluoro-α-methyl-4-biphenylacetyl]-[R,S,-β-(p-biphenyl)-β-alanine]-N-(2,2,6,6-tetramethyl-4-piperidinyl)amide] |  |
| 20 |  | 2500 |  | C[C@H](C(=O)N[C@@H](Cc1ccc(F)cc1)C(=O)NC1CC(C)(C)NC(C)(C)C1)c1ccc(-c2ccccc2)c(F)c1 [GCBH-124, N—[(S)-2-Fluoro-α-methyl-4-biphenylacetyl]-[(4-fluoro)-L-phenylalanine]-N-(2,2,6,6-tetramethyl-4-piperidinyl)amide] |  |
| 20 | 8000 |  |  | CC(C(=O)N[C@@H](Cc1ccc(OCc2c(Cl)cccc2Cl)cc1)C(=O)NCCCN1CCN(C)CC1)c1ccc(-c2ccccc2)c(F)c1 (stereo partly drawn) [GCBH-102, N—[(R,S)-2-Fluoro-α-methyl-4-biphenylacetyl]-[O-(2,6,dichlorobenzyl)-L-tyrosine]-N-[3-(4-methyl-1-piperizinyl)propyl]amide] |  |
| 50 |  | 1200 |  | CC(C(=O)N[C@@H](Cc1csc2ccccc12)C(=O)NC1CC(C)(C)NC(C)(C)C1)c1ccc(-c2ccccc2)c(F)c1 (stereo partly drawn) [GCBH-114, N—[(R,S)-2-Fluoro-α-methyl-4-biphenylacetyl]-(L-3-benzothienylalanine)-N-(2,2,6,6-tetramethyl-4-piperidinyl)amide] |  |

| SMILES | Solubility [1] [% DMSO] | IC50 [2] [nM] | IC50 ([2]; Homo sapiens, NCI-H2122) [nM] | IC50 [4] [nM] | inhibition of growth of the lung carcinoma cell line H2122 tumor [3] [%] |
| --- | --- | --- | --- | --- | --- |
| C[C@H](C(=O)N[C@@H](Cc1ccc(N(CCCl)CCCl)cc1)C(=O)NC1CC(C)(C)NC(C)(C)C1)c1ccc(-c2ccccc2)c(F)c1 [GCBH-126] | 20 |  | 3800 |  |  |
